Measured values from BindingDB's records for doi:10.1021/jm0604777 (University of Bristol, 2006).

Experiments:
[1] = molecular target: Delta-type opioid receptor (Homo sapiens, UniProt P41143); assay: Displacement of [3H]Cl-DPDPE from human recombinant DOR expressed in CHO cells
[2] = Binding affinity to DOR in guinea pig brain membrane

Chain of Delta-type opioid receptor (P41143 whole entry): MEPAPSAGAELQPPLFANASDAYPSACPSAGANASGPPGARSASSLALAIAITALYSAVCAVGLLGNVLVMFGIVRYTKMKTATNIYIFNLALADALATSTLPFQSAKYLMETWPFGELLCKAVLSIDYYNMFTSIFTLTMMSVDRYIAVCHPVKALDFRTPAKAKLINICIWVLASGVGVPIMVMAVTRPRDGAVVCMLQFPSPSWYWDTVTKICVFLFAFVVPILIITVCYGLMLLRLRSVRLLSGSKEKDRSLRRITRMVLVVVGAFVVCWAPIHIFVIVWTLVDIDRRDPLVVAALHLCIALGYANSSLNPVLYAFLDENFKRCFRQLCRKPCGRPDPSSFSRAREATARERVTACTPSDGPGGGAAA

| SMILES | Ki [1] [nM] | Ki [2] [nM] |
| --- | --- | --- |
| Cc1ccc(CCC(=O)N[C@@]23CCC(=O)[C@@H]4Oc5c(O)ccc6c5[C@@]42CCN(C)C3C6)cc1 [N-[(1R,13R,17S)-10-hydroxy-4-methyl-14-oxo-12-oxa-4-azapentacyclo[9.6.1.0^{1,13}.0^{5,17}.0^{7,18}]octadeca-7(18),8,10-trien-17-yl]-3-(4-methylphenyl)propanamide] | 1.3 |  |
| COc1ccc2c3c1O[C@H]1C(=O)CC[C@@]4(NC(=O)/C=C/c5ccccc5Cl)C(C2)N(CC2CC2)CC[C@]314 [N-cyclopropylmethyl-14beta-(2'-chlorocinnamoylamino)-7,8-dihydronorcodeinone] |  | 7.2 |
| COc1ccc2c3c1O[C@H]1C(=O)CC[C@@]4(NC(=O)/C=C/c5ccccc5C)C(C2)N(CC2CC2)CC[C@]314 [N-cyclopropylmethyl-14beta-(2'-methylcinnamoylamino)-7,8-dihydronorcodeinone] |  | 2.3 |
| Cc1ccccc1/C=C/C(=O)N[C@@]12CCC(=O)[C@@H]3Oc4c(O)ccc5c4[C@@]31CCN(CC1CC1)C2C5 [N-cyclopropylmethyl-14beta-(2'-methylcinnamoylamino)-7,8-dihydronormorphinone] | 1.3 |  |
